Assay results taken from patent US20250179088A9 (ZYMEWORKS BC INC., priority 2020, published 2025).

What was measured:
[1] = test system: PBMCs; test: PBMC assay, IL-6 release (HTRF); assay type: cell-based; settings: PBMCs from healthy donors, overnight, IL-6 induction by HTRF, average of quadruplicate
[2] = target: T1, TLR7 (Homo sapiens, UniProt Q9NYK1); test: Reporter gene assay, HEK-Blue TLR7 reporter cells (SEAP)
T1 sequence (Q9NYK1 27-1049): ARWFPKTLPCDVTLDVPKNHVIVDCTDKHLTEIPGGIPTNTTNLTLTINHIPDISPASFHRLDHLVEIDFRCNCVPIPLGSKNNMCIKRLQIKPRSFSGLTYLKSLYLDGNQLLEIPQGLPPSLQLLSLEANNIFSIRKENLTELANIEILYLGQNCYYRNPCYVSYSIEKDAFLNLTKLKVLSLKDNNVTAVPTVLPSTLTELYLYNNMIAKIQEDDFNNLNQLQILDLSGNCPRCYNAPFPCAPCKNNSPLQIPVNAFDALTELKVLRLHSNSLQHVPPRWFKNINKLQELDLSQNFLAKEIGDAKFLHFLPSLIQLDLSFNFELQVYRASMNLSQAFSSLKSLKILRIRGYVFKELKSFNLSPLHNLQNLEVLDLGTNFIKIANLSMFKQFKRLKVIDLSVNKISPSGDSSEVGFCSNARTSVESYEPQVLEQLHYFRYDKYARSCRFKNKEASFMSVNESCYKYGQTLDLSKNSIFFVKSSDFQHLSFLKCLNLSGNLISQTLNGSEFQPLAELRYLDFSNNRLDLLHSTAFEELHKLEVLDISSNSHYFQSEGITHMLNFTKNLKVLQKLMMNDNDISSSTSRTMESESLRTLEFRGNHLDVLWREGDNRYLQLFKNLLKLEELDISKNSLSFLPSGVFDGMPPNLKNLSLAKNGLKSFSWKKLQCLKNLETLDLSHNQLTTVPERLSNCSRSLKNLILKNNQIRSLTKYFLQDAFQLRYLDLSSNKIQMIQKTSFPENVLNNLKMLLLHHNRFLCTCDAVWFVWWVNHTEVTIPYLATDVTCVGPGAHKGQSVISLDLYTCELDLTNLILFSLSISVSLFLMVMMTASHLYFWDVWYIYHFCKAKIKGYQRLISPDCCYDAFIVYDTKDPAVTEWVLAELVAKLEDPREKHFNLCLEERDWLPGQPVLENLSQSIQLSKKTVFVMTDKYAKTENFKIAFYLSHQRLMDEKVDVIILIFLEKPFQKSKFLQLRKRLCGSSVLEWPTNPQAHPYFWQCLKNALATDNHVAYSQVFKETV
Procedure: (§1) 3×10^4 HEK-Blue™ TLR7 or 3×10^4 TLR8 reporter cells (InvivoGen, San Diego, CA) were treated with titrated (4-fold) amounts of test compound. […] Cells were incubated overnight at 37° C. and 5% CO2, then absorbance (620 and 655 nm) was read on a Synergy™ H1 microplate reader.

[3] = target: T2, TLR8 (Homo sapiens, UniProt Q9NR97); test: Reporter gene assay, HEK-Blue TLR8 reporter cells (SEAP)
T2 sequence (Q9NR97 27-1041): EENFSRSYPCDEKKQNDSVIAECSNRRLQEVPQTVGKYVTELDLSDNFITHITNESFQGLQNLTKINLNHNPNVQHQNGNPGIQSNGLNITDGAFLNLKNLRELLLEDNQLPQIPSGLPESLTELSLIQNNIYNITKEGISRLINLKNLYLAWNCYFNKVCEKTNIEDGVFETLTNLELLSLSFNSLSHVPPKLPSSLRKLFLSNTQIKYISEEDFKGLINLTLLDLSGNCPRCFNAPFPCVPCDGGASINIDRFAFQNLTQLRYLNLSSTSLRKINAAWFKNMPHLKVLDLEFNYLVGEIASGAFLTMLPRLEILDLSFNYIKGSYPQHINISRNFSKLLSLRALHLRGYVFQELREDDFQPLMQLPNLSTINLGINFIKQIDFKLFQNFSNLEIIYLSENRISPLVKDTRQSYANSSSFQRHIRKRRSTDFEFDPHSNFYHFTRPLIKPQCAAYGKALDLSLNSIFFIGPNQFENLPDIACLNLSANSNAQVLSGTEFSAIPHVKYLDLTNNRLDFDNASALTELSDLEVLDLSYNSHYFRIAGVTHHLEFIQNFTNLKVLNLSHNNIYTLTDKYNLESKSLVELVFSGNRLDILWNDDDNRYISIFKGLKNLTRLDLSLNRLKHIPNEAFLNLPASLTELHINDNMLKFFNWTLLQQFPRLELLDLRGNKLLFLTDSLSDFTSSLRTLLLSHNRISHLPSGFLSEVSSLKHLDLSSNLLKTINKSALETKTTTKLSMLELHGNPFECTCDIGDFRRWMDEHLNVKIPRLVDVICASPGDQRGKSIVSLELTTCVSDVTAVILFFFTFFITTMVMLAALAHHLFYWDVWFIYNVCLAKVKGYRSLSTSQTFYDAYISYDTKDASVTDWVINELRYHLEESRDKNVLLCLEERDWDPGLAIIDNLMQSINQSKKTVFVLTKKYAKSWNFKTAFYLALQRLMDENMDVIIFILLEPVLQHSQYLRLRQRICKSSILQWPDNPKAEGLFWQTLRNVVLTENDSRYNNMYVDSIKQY
Procedure: as §1

[4] = test system: PBMCs; test: PBMC assay, TNF-α release (HTRF); assay type: cell-based; settings: PBMCs from healthy donors, overnight, TNF-α induction by HTRF
Procedure: Whole peripheral blood was obtained from healthy donors. PBMCs were isolated from peripheral blood by density gradient centrifugation. […] Technologies, Vancouver, Canada) and centrifuged at 1200×G for 10 minutes in SepMate™ tubes (#15450, […] Technologies). The plasma layer containing PBMCs was poured into a new tube and washed twice. Isolated PBMCs were either used fresh or thawed from previously frozen. 1×10^5 PBMCs were cultured with titrating concentrations of compounds of Formula I overnight followed by assaying for cytokines by homogeneous time resolved fluorescence (HTRF). Compounds were dissolved in DMSO.

SMILES	EC50 [2] [nM]	EC50 [3] [nM]	EC50 [1] [nM]	EC50 [4] [nM]
CCNCc1nc2c(N)nc3ccsc3c2n1Cc1ccc(CN2CCNCC2)cc1 [Compound 268, 2-((ethylamino)methyl)-1-(4-(piperazin-1-ylmethyl)benzyl)-1H-imidazo[4,5-d]thieno [3,2-b]pyridin-4-amine]	> 1000	> 1000	> 1000	–
CCCCc1nc2c(N)nc3ccsc3c2n1Cc1ccccc1CN(CC)CC [Compound 221, 2-butyl-1-(2-((diethylamino)methyl)benzyl)-1H-imidazo[4,5-d]thieno[3,2-b]pyridin-4-amine]	> 1000	> 1000	> 1000	–
CCCCc1nc2c(N)nc3ccsc3c2n1Cc1ccccc1CN1CCN(C(=O)OC(C)(C)C)CC1 [Compound 217, tert-butyl 4-(2-((4-amino-2-butyl-1H-imidazo[4,5-d]thieno[3,2-b]pyridin-1-yl)methyl)benzyl)piperazine-1-carboxylate]	> 1000	> 1000	> 1000	–
CCCCc1nc2c(N)nc3ccsc3c2n1Cc1ccccc1CN1CCN(CCN2CCOCC2)CC1 [Compound 222, 2-butyl-1-(2-((4-(2-morpholinoethyl)piperazin-1-yl)methyl)benzyl)-1H-imidazo[4,5-d]thieno[3,2-b]pyridin-4-amine]	> 1000	> 1000	> 1000	–
CCCCc1nc2c(N)nc3ccsc3c2n1Cc1nc(CNCCCCCO)cs1 [Compound 236, 5-(((2-((4-amino-2-butyl-1H-imidazo[4,5-d]thieno[3,2-b]pyridin-1-yl)methyl)thiazol-4-yl)methyl)amino)pentan-1-ol]	310	73	310	> 1000
CCCCc1nc2c(N)nc3ccsc3c2n1Cc1ccc(CNCc2ccc(CNC(=O)OC(C)(C)C)cc2)cc1 [Compound 155, tert-butyl (4-(((4-((4-amino-2-butyl-1H-imidazo[4,5-d]thieno[3,2-b]pyridin-1-yl)methyl)benzyl)amino)methyl)benzyl)carbamate]	444	> 1000	110	–

These reach a lower EC50 [2]. Values come first.

EC50 [2] [nM]	EC50 [3] [nM]	SMILES	EC50 [1] [nM]	EC50 [4] [nM]
110	580	CCCCc1nc2c(N)nc3ccsc3c2n1Cc1nc(CNCc2cc[nH]c2)cs1 [Compound 231, 1-((4-((((1H-pyrrol-3-yl)methyl)amino)methyl)thiazol-2-yl)methyl)-2-butyl-1H-imidazo[4,5-d]thieno[3,2-b]pyridin-4-amine]	920	–
140	880	CCCCc1nc2c(N)nc3ccsc3c2n1Cc1nc(CN(CC)CC)cs1 [Compound 233, 2-butyl-1-((4-((diethylamino)methyl)thiazol-2-yl)methyl)-1H-imidazo[4,5-d]thieno[3,2-b]pyridin-4-amine]	630	–
290	120	CCCCc1nc2c(N)nc3ccsc3c2n1Cc1cccc(CNCCCCCO)c1 [Compound 203, 5-((3-((4-amino-2-butyl-1H-imidazo[4,5-d]thieno[3,2-b]pyridin-1-yl)methyl)benzyl)amino)pentan-1-ol]	160	–
12	380	CCCCc1nc2c(N)nc3ccsc3c2n1CCCCCN(CC)CC [Compound 175, 2-butyl-1-(5-(diethylamino)pentyl)-1H-imidazo[4,5-d]thieno[3,2-b]pyridin-4-amine]	99	–
34	> 1000	CCCCc1nc2c(N)nc3ccsc3c2n1CCCCCNCc1cc[nH]c1 [Compound 183, 1-(5-(((1H-pyrrol-3-yl)methyl)amino)pentyl)-2-butyl-1H-imidazo[4,5-d]thieno[3,2-b]pyridin-4-amine]	> 1000	–
280	> 1000	CCCCc1nc2c(N)nc3ccsc3c2n1Cc1cccc(CNN)c1 [Compound 206, 2-butyl-1-(3-(hydrazineylmethyl)benzyl)-1H-imidazo[4,5-d]thieno[3,2-b]pyridin-4-amine]	> 1000	–
83	> 1000	CCCCc1nc2c(N)nc3ccsc3c2n1CCCCCNCC(C)(C)O [Compound 180, 1-((5-(4-amino-2-butyl-1H-imidazo[4,5-d]thieno[3,2-b]pyridin-1-yl)pentyl)amino)-2-methylpropan-2-ol]	610	–
